Laboratory results from patent publication US20230145823A1 (priority 2020, published 2023).
Where two headings read alike, the source gives them in different places.

How the values were obtained:
pro-IL-1β = pro-IL-1β expression in differentiated THP-1 macrophages, Western blot; type: cell-based; conditions: PMA-differentiated THP-1 cells, LPS/IFNγ, 48 h
Experimental: (§1) THP-1 cells (ATCC) were maintained in RPMI 1,640 medium supplemented with 2-mercaptoethanol at a final concentration of 0.05 mM and FBS at a final concentration of 10%. THP-1 cells were seeded in each well of a 12-well tissue culture plate at a density 0.5×10^6 cells/mL, one day before experiments. THP-1 monocytes were differentiated by 150 nM PMA (phorbol 12-myristate 13-acetate) for 24 h.
Cells were washed twice with ice-cold PBS and harvested in RIPA buffer supplemented with a protease inhibitor cocktail. The whole-cell extracts were then centrifuged at 22,000×g for 20 min at 4° C. to remove cell debris. Protein concentrations were quantified using a Micro BCA protein assay kit. The absorbance was measured at 595 nm using a microplate reader. Equal amounts of cellular protein were separated by sodium dodecyl sulfate-polyacrylamide gel electrophoresis (SDS-PAGE) and transferred onto polyvinylidene difluoride (PVDF) membranes at 100 V for 90 min. The SDS-PAGE was performed with 10% polyacrylamide gel for iNOS and 12.5% for pro-IL-1β. The membranes were blocked for 1 h in Tris-buffered saline (TBS), pH 7.4, with 0.1% Tween-20 (TBS-T) containing 10% skim milk. […]

NO [1] = type: cell-based; conditions: RAW264.7 cells, LPS, 25 μM furosemide, 24 h
TNF-α [2] = type: cell-based; conditions: RAW264.7 cells, LPS, 25 μM furosemide, 24 h
arginase = assay: Arginase in conditioned medium of differentiated THP-1 cells, Multiplex assay using flow cytometry; type: cell-based; conditions: LPS and IFNγ, 48 h
Experimental: as §1
(§2) . The levels of anti-inflammatory cytokines from the conditioned medium of differentiated THP-1 cells were measured after 48 h of stimulation with LPS and IFNγ by Multiplex assay using flow cytometry. […]

[3] = previous studies; cited from earlier work
TLR4 = assay: LPS-induced TLR4 expression in RAW264.7 macrophage cells, flow cytometry; type: cell-based; conditions: RAW264.7 cells stimulated with LPS
Experimental: RAW264.7 cells were purchased from ATCC and maintained in Dulbecco's Modified Eagle's Medium (DMEM) containing foetal bovine serum (FBS) at a final concentration of 10%. RAW264.7 cells were seeded in 12-well plates at 0.25×10^6 cells/well seeding density, one day before experiments. […]; conditioned media and lysates were harvested for analysis.
Cells were harvested and re-suspended with staining buffer. Cells were stained with antibody (1:100) by incubating at 4° C. for 30 min in the dark. Stained cells were centrifuged, and the supernatant was discarded. The cell pellets were then re-suspended in cell flow buffer, transferred to FACS tubes and analyzed by flow cytometry within 48 h. To all cells in the experiment, Fc blocker was added.
LPS is recognized by the cell surface pattern-recognition receptors such as the toll-like receptor 4 protein (TLR4) and triggers downstream signaling pathways. LPS induces expression of the pro-inflammatory cytokine IFNγ. IFNγ is known to increase TLR4 expression which may then promote the response to LPS stimulation. […]

[4] = system: inducible nitric oxide synthase (iNOS); conditions: RAW264.7, LPS+IFNγ, 25 μM furosemide, 24 h
Experimental: Cells were washed twice with ice-cold PBS and harvested in RIPA buffer supplemented with a protease inhibitor cocktail. The whole-cell extracts were then centrifuged at 22,000×g for 20 min at 4° C. to remove cell debris. Protein concentrations were quantified using a Micro BCA protein assay kit. The absorbance was measured at 595 nm using a microplate reader. Equal amounts of cellular protein were separated by sodium dodecyl sulfate-polyacrylamide gel electrophoresis (SDS-PAGE) and transferred onto polyvinylidene difluoride (PVDF) membranes at 100 V for 90 min. The SDS-PAGE was performed with 10% polyacrylamide gel for iNOS and 12.5% for pro-IL-1β. The membranes were blocked for 1 h in Tris-buffered saline (TBS), pH 7.4, with 0.1% Tween-20 (TBS-T) containing 10% skim milk. The membrane blot was then incubated overnight at 4° C. with primary antibodies against iNOS (1:1,000), IL-1(3 (1:1,000), actin (1:5,000) and GAPDH (1:5,000) in TBS-T containing 5% skim milk. The membrane was washed with TBS-T 3×10 mins and incubated with goat anti-rabbit IgG-horseradish peroxidase (1:5,000) for 1 hour. After the washing step, the immunoblotting was visualized by chemiluminescence HRP-substrate.

[5] = cited from earlier work
[6] = cited from earlier work; remark: listed apart in the source
IL-4 = IL-4 in conditioned medium of differentiated THP-1 cells, Multiplex assay using flow cytometry; type: cell-based; conditions: LPS and IFNγ, 48 h
Experimental: as §1, §2

[7] = system: interleukin-1 receptor antagonist (IL-1RA); assay: IL-1RA in conditioned medium of differentiated THP-1 cells, Multiplex assay using flow cytometry; type: cell-based; conditions: LPS and IFNγ, 48 h
Experimental: as §1
The levels of anti-inflammatory cytokines from the conditioned medium of differentiated THP-1 cells were measured after 48 h of stimulation with LPS and IFNγ by Multiplex assay using flow cytometry.

TNF-α [8] = assay: LPS-induced TNF-α production from SIM-A9 cells, ELISA; type: cell-based; conditions: SIM-A9 cells stimulated with LPS
Experimental: (§3) Cytokines were quantified using ELISA kits following the manufacturer's instructions. Briefly, the high-binding plates were coated at 100 μL/well with diluted capture antibodies (1:250) at 4° C. overnight. The coated plates were then blocked with the diluent for 1 h before assay. Each sample was diluted accordingly and added to the plates for a 2 h incubation period at room temperature. Plates were then washed with 250 μL/well PBS with 0.05% Tween-20 and incubated with detection antibodies (1:250 in assay diluent) for 1 h at room temperature. After another washing step, 1:250 diluted avidin-HRP (horseradish peroxidase) was added and incubated for 30 min. Next, 100 μL TMB-substrate (3,3′,5,5′-tetramethylbenzidine) was added and the plate was incubated in the dark until the signal was sufficiently developed. […]. Absorbance was measured at 450 nm with a correction of 570 nm using a plate reader.
(§4) SIM-A9 (ATCC) cells were maintained in Dulbecco's modified eagle medium: nutrient mixture F-12 (DMEM-F12) with 10% foetal bovine serum, 5% horse-serum and antibiotic-antimycotic. SIM-A9 cells were seeded 24 h before the experiment. Culturing medium was replaced with DMEM-F12 medium containing 5% FBS+2.5% horse serum with required LPS concentration (final volume was one mL/well). The conditioned media and lysates were harvested for cytokine and cell marker examination.
. […]

NO [9] = assay: LPS-induced NO production from SIM-A9 cells, Griess assay; type: cell-based; conditions: SIM-A9 cells stimulated with LPS
Experimental: Nitric oxide production from the conditioned media of RAW264.7 and SIM-A9 cell cultures was examined by a Griess assay. Conditioned medium and sulfanilamide were mixed in a microwell plate to form a transient diazonium salt. Then, N-naphtyl-ethylenediamine was added to all wells to form a stable azo compound by incubating for 5-10 min in the dark at room temperature. The absorbance was measured between 520 nm and 550 nm. The concentration of NO production was quantified by being plotted against a standard curve.
as §4
. IL-1β plays a key role in modulating inflammatory response as a downstream pro-inflammatory marker of the TLR4 signaling pathway by using differentiated THP-1 monocytes. The expression of IL-1β precursor protein (pro-IL-1β) from THP-1 macrophage cells was studied using Western blot analysis. […]. […]

IL-6 = assay: LPS-induced IL-6 production from SIM-A9 cells, ELISA; type: cell-based; conditions: SIM-A9 cells stimulated with LPS
Experimental: as §3, §4
. […]

COVID-19 = conditions: cited from earlier work
[10] = Grogono et al. 2018, nebulized 40 mg in 4 mL 0.9% saline, healthy adults, multiple dosing per day
[11] = 21 patients with severe COVID-19, within a few days
[12] = 21 patients with severe COVID-19

## NS(=O)(=O)c1cc(C(=O)O)c(NCc2ccco2)cc1Cl [furosemide, 4-chloro-N-furfuryl-5-sulfamoylanthranilic acid]
pro-IL-1β
  expression of pro-IL-1β: significantly decreases
NO [1]
  production of NO: significantly decreased
NO [1]; listed as Furosemide
  production of NO: decreases
TNF-α [2]
  production of TNF-α: significantly decreased
TNF-α [2]; listed as Furosemide
  production of TNF-α: decreases
arginase
  expression of arginase: induces
[3]
  time to be shuttled from the lung and excreted: 4 to 6 h
TLR4
  LPS-induced TLR4 expression (TLR4+ cell population): completely blocked
TLR4; listed as Furosemide
  LPS-induced TLR4 expression (TLR4+ cell population): significantly decreases
[4]
  expression of iNOS: suppress
[5]; non-salt furosemide, aqueous isotonic saline, pH between 8.0 and 9.3
  solution concentration achievable: 10 mg/mL
[5]; weakly basic buffer solution (pH 8)
  solution concentration achievable: 10 mg/mL
[6]; [10]
  relief of experimentally induced air hunger: effective relief
  untoward effects: no untoward effects
[6]; inhalation, previous studies
  dose shown safe by inhalation: up to 120 mg per dose
[6]; inhaled furosemide, patients with respiratory conditions
  lung IL-6, IL-8, and TNF-α levels: reduction
[6]; patients receiving inhaled furosemide up to 40 mg
  urge to urinate: no increase
IL-4
  expression of IL-4: induces
[7]
  expression of IL-1RA: induces
TNF-α [8]
  production of TNF-α: significantly reduced
NO [9]
  production of NO: significantly reduced
IL-6
  production of IL-6: significantly reduced

## tocilizumab: Roche's tocilizumab (Actemra), an IL-6 inhibitor
COVID-19; [11]
  all other symptoms: improved remarkably
  fevers: returned to normal
COVID-19; [12]
  adverse reactions: no obvious adverse reactions
  patients who lowered their oxygen intake: 75%
COVID-19; nineteen discharged patients
  average time to discharge following treatment: 13.5 days
